Results as given in US6087355A, “Cephalosporin antibiotics” (Microcide Pharmaceuticals, Inc., priority 1996, dated 2000).
Counter-ions that a name gives are not always drawn.

Key:
[1] = test system: S. aureus strain ATCC 13709 (methicillin-susceptible); assay: Murine model for lethal bacteremic peritonitis; assay type: in vivo, female Swiss-Webster mice; details: Staphylococcus aureus, ATCC13709, SC, 72 h; for responders at 0.3125 mg/kg / responders at 0.625 mg/kg / responders at 2.5 mg/kg / responders at 5 mg/kg: read-out: Survivors; for responders at 1.25 mg/kg: read-out: Survivors (converted); for ED50: two equal doses, IP challenge, read-out: ED50
Summary of the method: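 Female Swiss-Webster mice were challenged IP with an LD100 inoculum in 7% hog gastric mucin, then given test drug subcutaneously in twofold increments (0.01–512 mg/kg) as two equal doses at challenge and 2 h later, 10 mice per group. Survival was scored at 72 h; PD50 (total mg/kg) was derived by probit.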

[2] = test system: S. aureus PC1(Meth^S)(lac^+); assay: In vitro MIC, agar dilution; assay type: cell-based; details: Staphylococcus aureus, read-out: minimum inhibitory concentration (MIC)
Summary of the method: (§1)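 Two-fold dilutions of compound (highest working concentration 128 μg/mL, down to ≤0.25 μg/mL, in duplicate) were set into Mueller-Hinton agar. Plates were spot-inoculated at about 10^4 cfu per spot from log-phase cultures and incubated 16-20 hours at 35-36° C. MIC is the lowest concentration inhibiting growth.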

E. faecium VanA(Van^R) = assay: In vitro MIC, agar dilution; assay type: cell-based; details: Enterococcus faecium, read-out: minimum inhibitory concentration (MIC)
Summary of the method: as §1

E. faecium A491(Amp^R) = assay: In vitro MIC, agar dilution; assay type: cell-based; details: Enterococcus faecium, read-out: minimum inhibitory concentration (MIC)
Summary of the method: as §1

E. faecium ATCC 35667 = assay: In vitro MIC, agar dilution; assay type: cell-based; details: Enterococcus faecium, ATCC35667, read-out: minimum inhibitory concentration (MIC)
Summary of the method: as §1

[3] = test system: S. aureus ATCC 13709(Meth^S); assay: In vitro MIC, agar dilution; assay type: cell-based; details: Staphylococcus aureus, ATCC13709, S. aureus ATCC 13709(Meth^S); read-out: minimum inhibitory concentration (MIC)
Summary of the method: as §1

[4] = test system: S. haemolyticus 05(Meth^R); assay: In vitro MIC, agar dilution; assay type: cell-based; details: Staphylococcus haemolyticus, read-out: minimum inhibitory concentration (MIC)
Summary of the method: as §1

S. aureus ATCC 29213 = assay: In vitro MIC, agar dilution; assay type: cell-based; details: Staphylococcus aureus, ATCC29213, read-out: minimum inhibitory concentration (MIC)
Summary of the method: as §1

E. faecalis ATCC 29212 = assay: In vitro MIC, agar dilution; assay type: cell-based; details: Enterococcus faecalis, ATCC29212, read-out: minimum inhibitory concentration (MIC)
Summary of the method: as §1

E. coli ATCC 25992 = assay: In vitro MIC, agar dilution; assay type: cell-based; details: Escherichia coli, ATCC25992, read-out: minimum inhibitory concentration (MIC)
Summary of the method: as §1

[5] = test system: S. aureus Spain #356(Meth^R); assay: In vitro MIC, agar dilution; assay type: cell-based; details: Staphylococcus aureus, read-out: minimum inhibitory concentration (MIC)
Summary of the method: as §1

[6] = test system: S. aureus 76(Meth^R)(lac^+); assay: In vitro MIC, agar dilution; assay type: cell-based; details: Staphylococcus aureus, read-out: minimum inhibitory concentration (MIC)
Summary of the method: as §1

P. aeruginosa ATCC 27853 = assay: In vitro MIC, agar dilution; assay type: cell-based; details: Pseudomonas aeruginosa, ATCC27853, read-out: minimum inhibitory concentration (MIC)
Summary of the method: as §1

E. faecalis VanB(Van^R) = assay: In vitro MIC, agar dilution; assay type: cell-based; details: Enterococcus faecalis, read-out: minimum inhibitory concentration (MIC)
Summary of the method: as §1

[7] = test system: S. aureus ATCC 33593(Meth^R); assay: In vitro MIC, agar dilution; assay type: cell-based; details: Staphylococcus aureus, ATCC33593, read-out: minimum inhibitory concentration (MIC)
Summary of the method: as §1

[8] = test system: S. aureus Col8A(Meth^S)(lac^-); assay: In vitro MIC, agar dilution; assay type: cell-based; details: Staphylococcus aureus; S. aureus Col8A(Meth^S)(lac^-); read-out: minimum inhibitory concentration (MIC)
Summary of the method: (§2)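 Two-fold dilutions (128 to ≤0.25 μg/mL, in duplicate) were poured into Mueller-Hinton agar. Log-phase broth cultures were spot-inoculated at about 10^4 cfu per spot and incubated 35-36°C for 16-20 hours; the MIC was the lowest concentration inhibiting growth. Col is a high-level PBP2a producer; Col 8A is its isogenic PBP2a-lacking partner.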

[9] = test system: S. aureus Col(Meth^R)(lac^-); assay: In vitro MIC, agar dilution; assay type: cell-based; details: Staphylococcus aureus, read-out: minimum inhibitory concentration (MIC)
Summary of the method: as §2

Compound	responders at 0.3125 mg/kg [1]	responders at 0.625 mg/kg [1]	responders at 1.25 mg/kg [1]	responders at 2.5 mg/kg [1]	responders at 5 mg/kg [1]	ED50 [1]	MIC [2]	MIC (E. faecium VanA(Van^R))	MIC (E. faecium A491(Amp^R))	MIC (E. faecium ATCC 35667)	MIC [3]	MIC [4]	MIC (S. aureus ATCC 29213)	MIC (E. faecalis ATCC 29212)	MIC (E. coli ATCC 25992)	MIC [5]	MIC [6]	MIC (P. aeruginosa ATCC 27853)	MIC (E. faecalis VanB(Van^R))	MIC [7]	further results
NCCCSCc1cnccc1SC1=C(C(=O)O)N2C(=O)[C@@H](NC(=O)/C(=N\O)c3nc(N)sc3Cl)[C@H]2SC1 [Cmpd 27, (7R)-7-[(Z)-2-(2-amino-5-chlorothiazol-4-yl)-2-(hydroxyimino)acetamido]-3-[3-(3-aminopropyl)thiomethylpyrid-4-ylthio]-3-cephem-4-carboxylate, trifluoroacetic acid salt]	0%	0%	20%	60%	70%	2.64 mg/kg	0.25 µg/mL	0.5 µg/mL	4 µg/mL	0.25 µg/mL	0.13 µg/mL	2 µg/mL	0.25 µg/mL	≤ 0.06 µg/mL	8 µg/mL	1 µg/mL	1 µg/mL	32 µg/mL	≤ 0.06 µg/mL	1 µg/mL	MIC [8]: 0.13 µg/mL; MIC [9]: 0.5 µg/mL
CNCCNCCSCc1nnsc1SC1=C(C(=O)O)N2C(=O)[C@@H](NC(=O)/C(=N\OCCF)c3nc(N)sc3Cl)[C@H]2SC1.O=C(O)C(F)(F)F [Cmpd 28, (7R)-7-[(Z)-2-(2-amino-5-chlorothiazol-4-yl)-2-(2-fluoroethoxyimino)acetamido]-3-[(methylaminoethylaminoethylthiomethyl)-1,2,3-thiadiazol-5-ylthio]-3-cephem-4-carboxylate, trifluoroacetic acid salt]	10%	10%	40%	30%	70%	3.01 mg/kg	0.5 µg/mL	4 µg/mL	16 µg/mL	1 µg/mL	0.13 µg/mL	4 µg/mL	1 µg/mL	0.13 µg/mL	2 µg/mL	2 µg/mL	2 µg/mL	32 µg/mL	0.25 µg/mL	4 µg/mL	MIC [8]: 0.25 µg/mL; MIC [9]: 2 µg/mL
NCCSc1cnccc1SC1=C(C(=O)O)N2C(=O)[C@@H](NC(=O)/C(=N\O)c3nc(N)sc3Cl)[C@H]2SC1 [Cmpd 30, (7R)-7-[(Z)-2-(2-amino-5-chlorothiazol-4-yl)-2-(hydroxyimino)acetamido]-3-(3-aminoethylthiopyrid-4-ylthio)-3-cephem-4-carboxylate, trifluoroacetic acid salt]	0%	20%	40%	100%	100%	1.14 mg/kg	≤ 0.25 µg/mL	1 µg/mL	8 µg/mL	0.5 µg/mL	≤ 0.25 µg/mL	1 µg/mL	0.25 µg/mL	≤ 0.06 µg/mL	8 µg/mL	1 µg/mL	2 µg/mL	> 32 µg/mL	≤ 0.06 µg/mL	1 µg/mL	MIC [8]: 0.13 µg/mL; MIC [9]: 0.5 µg/mL
NCC(O)CSCc1cnccc1SC1=C(C(=O)O)N2C(=O)[C@@H](NC(=O)/C(=N\O)c3nc(N)sc3Cl)[C@H]2SC1 (stereo partly drawn) [Cmpd 32, (7R)-7-[(Z)-2-(2-amino-5-chlorothiazol-4-yl)-2-(hydroxyimino)acetamido]-3-[3-(3-amino-2-hydroxyprop-1-ylthiomethyl)pyrid-4-ylthio]-3-cephem-4-carboxylate, trifluoroacetic acid salt]	0%	10%	50%	50%	80%	2 mg/kg	0.5 µg/mL	1 µg/mL	8 µg/mL	0.5 µg/mL	0.13 µg/mL	4 µg/mL	0.25 µg/mL	≤ 0.06 µg/mL	8 µg/mL	2 µg/mL	2 µg/mL	> 32 µg/mL	0.13 µg/mL	2 µg/mL	MIC [8]: 0.25 µg/mL; MIC [9]: 1 µg/mL
